The record followed here is patent US4119629A, “Certain azaphenoxathiin compounds” (priority 1977, dated 1978).

Like-named read-outs stand apart in the source and are kept apart here.

A short description of data set [1]: Barbiturate induced sleeping time potentiation. The following applies: in all cases. Type of data set: in vivo. The method, then:
(§1) Further, the action of the drug at 200 mg/kg in the spontaneous motor activity test tends to reverse with greater activity observed (47%). An additional set of data was also acquired for this compound which was barbiturate induced sleeping time potentiation. […] Thus, compounds that may be prepared in accordance with Equation 3 above are: […]

A short description of data set [2]: LD50 studies of 7-chloro-1-azaphenoxathiin. Type of data set: in vivo. The text has this: Table of LD50 Studies of 7-chloro-1-azaphenoxathiin
Test Animal Survival Time
Group* Dose (mg/kg) (Days)
*All animals were tail-coded
**LD50; dependent on the toleration of the animal for this drug

Data set [3] can be described thus: Barbital sleeping time potentiation. Type of data set: in vivo. The following applies: control 125.4. The method, then: as §1
(§2) Table of Barbiturate Sleeping Time Potentiation With
(§3) 7-Chloro-1-Azaphenoxathiin
(§4) Dose (mg/kg) Mean (min) SE (min)
Barbital Sleeping Time Potentiation

The nature of data set [4]: Effect on body temp., heart rate, and respiration in rats. Type of data set: in vivo. Particulars: 100 mg/kg i.p. The method, then:
TABLE OF EFFECT OF 7-CHLORO-1-AZAPHENOXATHIIN 100 MG/KG I.P. ON
BODY TEMP., HEART RATE, AND RESPIRATION IN RATS

The nature of data set [5]: Hexobarbital sleeping time potentiation. Type of data set: in vivo. Particulars: control 58.5. The method, then:
as §1, §2, §3
Hexobarbital Sleeping Time Potentiation
as §4

Data set [6] can be described thus: Spontaneous and forced motor activity tests. Type of data set: in vivo. The method, then:
as §1

Data set [7] can be described thus: Strychnine anticonvulsant study. Type of data set: in vivo. The following applies: for Average Onset Time: saline control 3.10. From the text:
TABLE OF STRYCHNINE ANTICONVULSANT STUDY
WITH 7-NITRO-1-AZAPHENOXATHIIN
Test Group Time (min) Deviation Error
______________________________________

Data set [8] in a line: Preliminary toxicity testing of 7-nitro-1-azaphenoxathiin.
Experimental: These tests were run simultaneously using chloropromazine as a control. This compound was tested at doses of 50, 100 and 200 mg/kg.
Data set [9] is classed as in vivo, mice. Particulars: 50 mg/kg. The text has this: The following table illustrates utility of the compounds of the present invention as weight control agents.
Table of Weight Control Observed
With 1,5-bis(thiophenyl)-2-nitrobenzene
Animal (mg/kg) (grams) Date

Data set [10] can be described thus: Toxicity, survival time after im injection in DMSO. Type of data set: in vivo, mice. From the text:
The following represents initial test observations for one of the above identified compounds.
Table of Toxicity Data for
1,5-bis(thiophenyl)-2-nitrobenzene* (2e)
Animal** (mg/kg im DMSO) Time (Days)
**All mice were tail-coded.
***Sacrificed at the end of 14 days.

As a reminder, the LD50 is the dose at which mortality reaches 50%. Low readings indicate a more toxic substance, high ones a less toxic substance. Turning to `Clc1ccc2c(c1)Oc1cccnc1S2` [7-chloro-1-azaphenoxathiin], in data set [1], the “barbiturate induced sleeping times” value is “prolongation of barbiturate induced sleeping times”. Further, the “Survival Time” value is 14 days in data set [2] (50 mg/kg, group 1, 14-day test period); 14 days in data set [2] (100 mg/kg, group 2, 14-day test period); 14 days in [2] (250 mg/kg, group 3, 14-day test period); 14 days in [2] (500 mg/kg, group 4, 14-day test period); 0 to 14 days in data set [2] (750 mg/kg, group 5, LD50, dependent on the toleration of the animal); 0 days in data set [2] (1,000 mg/kg, group 6). Also, the “Survival Time” value in data set [2] (1,500 mg/kg, group 7) turned out to be 0 days. Also, the “survival of the 14-day test period” value in data set [2] (750 mg/kg) is given as “several lived the 14-day test period”. In data set [2] (in vivo), the LD50 is approximately 750 mg/kg. Further, in [2] (test animals), the tolerability entry is “generally well tolerated”. Further, the results for the “Barbital Sleeping Time, Mean” value in [3] (25 mg/kg), in data set [3] (50 mg/kg) and in data set [3] (100 mg/kg) were 120.6 min, 155.1 min and 179.5 min, respectively. Also, the H.R. was determined as 331.2 Beats/Min in data set [4] (time 0, N 5); 314.0 Beats/Min in data set [4] (time 30, N 4); 288.0 Beats/Min in data set [4] (time 60, N 4); 273.0 Beats/Min in [4] (time 120, N 4); 270.0 Beats/Min in data set [4] (time 180, N 4); 289.0 Beats/Min in data set [4] (time 240, N 4). Also, the Resp in data set [4] (time 0, N 5) amounted to 120.8 Breath/Min; in [4] (time 30, N 4), 101.2 Breath/Min; in [4] (time 60, N 4), 79.7 Breath/Min; in data set [4] (time 120, N 4), 70.0 Breath/Min; in [4] (time 180, N 4), 78.2 Breath/Min; in data set [4] (time 240, N 4), 82.3 Breath/Min. The Temp turned out to be 38.5 °C in [4] (time 0, N 5); 37.6 °C in data set [4] (time 30, N 4); 36.8 °C in data set [4] (time 60, N 4); 35.8 °C in data set [4] (time 120, N 4); 35.4 °C in data set [4] (time 180, N 4); 35.0 °C in [4] (time 240, N 4). In addition, the “H.R. Δ From Veh” value in [4] (time 30, N 4) is on record as -34.0 Beats/Min; in data set [4] (time 60, N 4) it was -36.0 Beats/Min; in data set [4] (time 120, N 4), -55.0 Beats/Min; in data set [4] (time 180, N 4) it was -66.0 Beats/Min; in data set [4] (time 240, N 4) it was -51.0 Beats/Min. The “Resp Δ From Veh” value was -33.1 Breath/Min in data set [4] (time 30, N 4); -65.9 Breath/Min in [4] (time 60, N 4); -49.2 Breath/Min in data set [4] (time 120, N 4); -41.8 Breath/Min in data set [4] (time 180, N 4); -33.0 Breath/Min in data set [4] (time 240, N 4). Further, the “Temp Δ From Veh” value in [4] (time 30, N 4) is -0.4 °C; in data set [4] (time 60, N 4), -2.4 °C; in [4] (time 120, N 4), -2.4 °C; in data set [4] (time 180, N 4), -3.4 °C; in data set [4] (time 240, N 4) it was -3.6 °C. The “Hexobarbital Sleeping Time, Mean” value was found to be 79.8 min in data set [5] (25 mg/kg); 81.9 min in data set [5] (50 mg/kg, p<0.05); 104.4 min in [5] (100 mg/kg, p<0.05). For the same molecule, the “greater activity observed in the spontaneous motor activity test” value in data set [6] (200 mg/kg, action tends to reverse) was found to be 47%. In addition, the “potency in both spontaneous and forced motor activity tests” value in [6] (compared with 7-nitro-1-azaphenoxathiin) is “somewhat more potent than the former”.
For `O=[N+]([O-])c1ccc2c(c1)Oc1cccnc1S2` [7-nitro-1-azaphenoxathiin], the “activity as an anticonvulsant” value in [7] is “essentially no activity”. The “Average Onset Time” value in data set [7] (50 mg/kg) worked out at 3.21 min; in [7] (100 mg/kg), 3.06 min; in [7] (200 mg/kg), 3.06 min. Further, in [8], the toxicity entry was “surprisingly low toxicity”.
As to `O=[N+]([O-])c1ccc(Sc2ccccc2)cc1Sc1ccccc1` [1,5-bis(thiophenyl)-2-nitrobenzene], the Weight is 16.0 grams in data set [9] (animal #5, 7/16/77); 15.8 grams in data set [9] (animal #5, 7/17/77); 16.0 grams in data set [9] (animal #5, 7/18/77); 16.0 grams in data set [9] (animal #5, 7/19/77); 16.0 grams in data set [9] (animal #5, 7/20/77); 16.0 grams in data set [9] (animal #5, 7/21/77). In data set [10], the “death resulting from decreased CNS activity” value is given as “death at higher doses”.
